Results as given in US9709557B2, “Anthraquinone based near IR emitting compounds and uses thereof” (LIFE TECHNOLOGIES CORPORATION, priority 2008, dated 2017).

Legend:
[1] = system: Jurkat cells fixed in 70% cold ethanol; experiment: Staining of fixed cells, DNA content cell cycle by flow cytometry (Example 41); format: cell-based, human; conditions: 5 μM, PBS, room temperature 30 min
Description: Live Jurkat cells are fixed 70% cold ethanol and stored at −20° C. for one month. The cells are the washed in phosphate buffered saline (PBS) and resuspended in PBS at 5×10^5 cells/ml. Cells are labeled with a 5 μM solution of a compound according to the invention (e.g., Compound 9 or a salt thereof) at room temperature for 30 minutes and then run through two flow cytometers: A BD LSRII using 488 nm excitation and 695/40 nm emission and an Accuri C6 using 488 nm excitation and >670 nm emission, collecting 10,000 events at low flow rate. Markers are placed on the G0G1 and G2M peaks to look at % CV of the G0G1 peak and the ratio of G2M/G0G1.

Live Jurkat cells [2] = experiment: Evaluation of cell health after DNA staining, ImageStream imaging flow cytometer (Example 39); format: cell-based; conditions: 5 μM, 37° C., 30 min
Excerpt: An ImageStream multispectral imaging flow cytometer is used to evaluate the live, apoptotic and mitotic rate of cycling Jurkat cells labeled with a compound of the invention (e.g., Compound 9 or a salt thereof). The platform produces high resolution brightfield, darkfield, and fluorescence images of cells prepared in suspension. IDEA analysis software I is used to quantify morphometric and photometric parameters for each cell based on the imaged collected. This technology combines the quantitative power of large sample sizes common to flow cytometry with the high information content present in microscopic images.
Live Jurkat cells are suspended at 5×10^5 cells/ml in each RPMI media with 10% FBS. The compound (in 5 mM DMSO) is added at a concentration of 5 μM and then the cells are incubated at 37° C. for 30 minutes while protected from light before acquiring on the ImageStream cytometer using 658 nm excitation and >660 nm emission. Apoptotic, mitotic, and interphase Jurkat cells are distinguished from each other using a combination of scatter, DNA intensity, and morphology-based parameters. Apoptotic cells with high laser scatter properties are gated on the Mean Pixel SSC histogram. Low scatter apoptotic events with low DNA content or textured nuclei are identified on the dye intensity versus bright detail intensity plot. […]

Live Jurkat cells [3] = experiment: DNA staining of live cells and DNA content cell cycle analysis using flow cytometry (Example 36); format: cell-based, human; conditions: for G2/G1 ratio: 30 min
Description: Live Jurkat cells are suspended at 5×10^5 cells/ml in each RPMI media with 10% Fetal Bovine Serum (FBS) and Hanks Balanced Salt Solution (HBSS). A compound (e.g., Compound 9 or a salt thereof) is added to each of one mL cell suspensions at concentrations 1 μM, 5 μM, 10 μM, and 20 μM, and then incubated at 37° C. or room temperature for 30 minutes while protected from light. Cells are run through a Becton Dickinson (BD) LSRII Flow Cytometer. Forward Scatter (FS) versus Side Scatter (SS) dual parameter plot is used to gate main cell population. Fluorescence is collected using three lasers: 488 nm excitation laser with 670/14, 720/20 and 787/42 bandpass emission filter, 532 nm excitation laser with 585/42 and 780/60 bandpass emission filters, and 633 nm excitation laser with 695/40, and 787/42 bandpass emission filters. Collection of at least 10,000 events at flow rate of ˜200 events/second. The data is further analyzed using MODFIT LT Flow Cytometry Modeling Software from Verity Software House, Inc. to evaluate the ratio of G2/G1 and the % CV of G1 phase.
DNA content analysis in living cells is expected to produce variable results. Depending on the cell type, the % CV of the mean DNA content of a uniform cell population may vary from between 5%-10%. Although there is no formal consensus regarding the acceptable maximal CV value for the mean DNA content of the G0G1 phase, the % CV of normal diploid cells in a histogram generally is <8%. The CV of a tumor may be higher due to the presence of multiple tumor subpopulations. However, tumor CVs of <8% are recommended for useful S-Phase determinations (Cytometry, Vol. 14 (5), 1993, page 474).
Linearity is the observed ratio between the DNA Diploid G2M and G0G1 positions. The ratio normally is about two, but this ratio may deviate from the ideal value even under normal conditions (see, MODFIT LT User Guide, June 2000).

Live Jurkat cells [4] = experiment: DNA staining of live cells (diluted samples), cell cycle analysis by flow cytometry (Example 38); format: cell-based, human
Description: Aliquots of a compound of the invention (e.g., Compound 9 or a salt thereof) are diluted to a concentration of 5 mM in de-ionized water (DI) or in DMSO. Live Jurkat cells are suspended at 5×10^5 cells/ml in each RPMI media with 10% FBS. Compound from each solution (DI and DMSO) is added to each of one mL cell suspensions at a concentration 5 μM and then incubated at 37° C. for 30 minutes while protected from light. Cells are run through a Becton Dickinson (BD) LSRII Flow Cytometer. Forward Scatter (FS) versus Side Scatter (SS) dual parameter plot is used to gate main cell population. Fluorescence is collected using two lasers: the 488 nm excitation laser with 695/40, and 780/60 bandpass emission filter, and using the 633 nm excitation laser with 780/60, 710/50, and 660/20 bandpass emission filters. Fluorescence is also collected with the 488 nm laser and the 530/30 and 575/26 bandpass emission filters to observe for any fluorescence spillover in these detectors. Collection of at least 10,000 events is performed at a flow rate of ˜200 events/second. The data is analyzed to evaluate the ratio of G2/G1 and the % CV of G1 phase, as described herein. Compound 9 was evaluated using the described procedures and was effective as a DNA stain for use in DNA cell cycle analysis. The compound was excited by both lasers with emission in the far red and near-IR regions of the spectrum. […] Table 2 summarizes data for live Jurkat cells suspended in RPMI media+10% FBS treated with 5 μM Compound 9 (as a 5 mM DMSO or DI solution).

[5] = Accuri C6, 488 nm excitation, >670 nm
[6] = BD LSRII, 488 nm excitation, 695/40

CN(C)CCNC(=O)CNc1ccc(O)c2c1C(=O)c1c(O)ccc(N)c1C2=O [Compound 9]
% CV of the G0G1 peak [1, 5]: 5.9% | ratio of G2M/G0G1 [1, 5]: 1.85 | % CV of the G0G1 peak [1, 6]: 6.0% | ratio of G2M/G0G1 [1, 6]: 1.83 | cells dead following incubation with the dye (Live Jurkat cells [2]): 7.1% | mitotic cells as share of the live cell population (Live Jurkat cells [2]): 1.9% | G2/G1 ratio (Live Jurkat cells [3]; 1 μM, RPMI media, 37° C.): 1.91 | G2/G1 ratio (Live Jurkat cells [3]; 5 μM, RPMI media, 37° C.): 1.83 | G2/G1 ratio (Live Jurkat cells [3]; 10 μM, HBSS buffer, 37° C.): 1.84 | G2/G1 ratio (Live Jurkat cells [3]; 10 μM, HBSS buffer, room temperature): 1.83 | G2/G1 ratio (Live Jurkat cells [3]; 10 μM, RPMI media, 37° C.): 1.82 | G2/G1 ratio (Live Jurkat cells [3]; 10 μM, RPMI media, room temperature): 1.82 | G2/G1 ratio (Live Jurkat cells [3]; 20 μM, RPMI media, 37° C.): 1.87 | % CV of G1-phase (Live Jurkat cells [3]; all concentrations (1-20 μM), media and HBSS, 37° C. and room temperature, MODFIT): < 8% | G2/G1 ratios (linearity) (Live Jurkat cells [3]; all concentrations, MODFIT analysis): indicating linearity of staining | DNA staining of live cells (Live Jurkat cells [3]; excited by 488, 532 and 633 nm lasers): effective stain for DNA | G2/G1 ratio (Live Jurkat cells [4]; 5 μM from 5 mM DI solution, 488 + 695/40): 1.89 | G2/G1 ratio (Live Jurkat cells [4]; 5 μM from 5 mM DI solution, 633 + 710/50): 1.85 | G2/G1 ratio (Live Jurkat cells [4]; 5 μM from 5 mM DMSO solution, 488 + 695/40): 1.88 | G2/G1 ratio (Live Jurkat cells [4]; 5 μM from 5 mM DMSO solution, 633 + 710/50): 1.85 | % CV of G1-phase (Live Jurkat cells [4]; 5 μM, all samples and conditions, MODFIT): < 8%
